# Results taken from ChEMBL document CHEMBL1157539, “Thousands of chemical starting points for antimalarial lead identification” (Nature, 2010).
# Several values for one entry are separate records, joined by “and”; a condition that tells them apart may be missing. Equal values may be shown once.
# Tested on: Plasmodium falciparum
# Assay: GSK_TCMDC: Inhibition of Plasmodium falciparum 3D7 in whole erythrocytes, using parasite LDH activity as an index of growth.
# Format: functional, organism-based
SMILES,"XC50 (Plasmodium falciparum, 3D7)",XC50
O=C(CCCCCc1ccccc1)NC1CCC(CN2CCC(c3c[nH]c4ccccc34)CC2)CC1 (stereo not given),1140 nM,–
O=C(/C=C/c1c(Cl)cccc1Cl)NC1CCC(CN2CCC(c3c[nH]c4ccccc34)CC2)CC1 (stereo not given),–,814 nM and 373 nM
Nc1nc(N)c2c(Cc3ccc(Br)cc3)cccc2n1,775 nM,–
COc1ccc2ccc(F)c(CC(=O)N3CCOC(CNCc4cccc(-c5ccc(F)cc5)n4)C3)c2n1 (stereo not given),1010 nM,–
COc1cccc(-c2csc(C(=O)NCC3CCN(Cc4ccc(C(C)(C)C)cc4)C3)c2)c1 (stereo not given),1180 nM,–
CC(C)Cn1c2ccccc2c2nc3nc(N)nc(N)c3nc21,725 nM,–
COc1ccc(-c2cccc(CNC3CCN(C)CC3)c2)cc1S(=O)(=O)NCc1ccccc1,874 nM,–
Cc1[nH]c2cc(Cl)ccc2c1C1=CCN(CCN2CCOc3c(Br)cccc3C2=O)CC1,873 nM,–
CCCOc1cc(O)c(-c2[nH]nc(C)c2Oc2ccccc2)cc1CC,1070 nM,–
FC(F)(F)c1ccc2[nH]c(-c3cccc(-c4cccc(CNCCc5ccncc5)c4)c3)nc2c1,141 nM,–
O=C(Nc1cc(Cl)ccc1O)c1ccc(Oc2ccc(C(=O)Nc3cc(Cl)ccc3O)cc2)cc1,920 nM,–
CC(C)C[C@H](Nc1ccc(C#N)c2ccccc12)C(=O)NC(C)(C)C12CC3CC(CC(C3)C1)C2,916 nM,–
NCC1CCCN1Cc1cccc(-c2ccc(-c3nc4cc(C(F)(F)F)ccc4[nH]3)cc2)c1 (stereo not given),778 nM,–
CCN(CC)Cc1cc(NC(=O)c2ccccc2O)ccc1Oc1ccc(Cl)cc1,827 nM,–
CCN(CC)CCNC(=O)c1ccc(NC(=O)c2cn(-c3ccccc3)nc2-c2cccs2)cc1,258 nM,–
CC(=O)Nc1ccc(C(=O)Nc2cccc(-c3ccc(-c4nc5cc(F)ccc5[nH]4)s3)c2)cn1,233 nM,–
CN1CCN(CCCN(Cc2cccc(-c3ccc(CNCCc4ccccc4)cc3)c2)C(=O)Nc2ccccc2)CC1,834 nM,–
O=C(Nc1ccc(N2CCN(Cc3ccccc3Cl)CC2)cc1)c1ccc([N+](=O)[O-])o1,975 nM,–
N=C(N)Nc1nc(-c2cccc(NC(=O)Cc3ccccc3)c2)cs1,1000 nM,–
C=C(C)C1CC=C(CN2CCC(N3CCc4cc(NC(=O)c5cc(C)on5)ccc43)C2)CC1 (stereo not given),707 nM,–
CC(=O)N1N=C(c2[nH]c3ccc(Br)cc3c2C)OC1c1ccccc1 (stereo not given),777 nM,–

SMILES,"XC50 (Plasmodium falciparum, 3D7)",XC50
c1ccc2c(CNc3ccnc(NCc4cccc5ccccc45)n3)cccc2c1,559 nM,–
CC(C)c1cccc(C(C)C)c1NC(=O)NNC(=O)c1ccc(CCN2CCC(c3nc(COCC(F)(F)F)c(-c4ccc(F)cc4)o3)CC2)cc1,1090 nM,–
COc1cc(-n2cnc3cc(-c4ccc(Cl)cc4)sc3c2=O)ccc1OCCN1CCC(c2cccc(NC(C)=O)c2)CC1,553 nM,–
Cc1ccc(Sc2ccc(NC(=O)CN3CCN(C(=O)c4ccco4)CC3)cc2)cc1C,911 nM,–
CN(CCCCNC(=O)c1ccc(-c2ccccc2)cc1)C1CCc2c(O)cccc2C1 (stereo not given),724 nM,–
CC(C)CNC(=O)c1cncc(-c2ccc(CN3CCC(N4CCCC4)CC3)cc2)c1,689 nM,–
CC(C)Sc1nc2c(c(=O)n1CCc1ccccc1)C1(CCCC1)Cc1ccccc1-2,347 nM,–
N#Cc1cc(C(=O)c2cc(Cl)ccc2O)cn(-c2cc(Cl)cc(Cl)c2)c1=O,849 nM,–
Cc1cccc2nc(-c3ccc(-c4ccc(C(=O)NCCN5CCCC5)cc4)s3)[nH]c12,901 nM,–
N#Cc1ccc(N(CCOc2ccc3c(c2)CCC(=O)N3)Cc2ccccc2C(F)(F)F)cc1C(F)(F)F,763 nM,–
O=S(=O)(Nc1ccc(CCN2CCCCC2CCN2CCCC2)cc1)c1cccc2cccnc12 (stereo not given),1300 nM,–
O=S(=O)(NC1CCN(c2ccnc3ccccc23)C1)c1ccc(OC(F)(F)F)cc1 (stereo not given),1080 nM,–
Fc1cccc(Nc2nc(NCc3ccc(Cl)c(Cl)c3)nc(Nc3cccc(F)c3)n2)c1,748 nM,–
c1ccc2c(NCCCCCCNc3ccnc4ccccc34)ccnc2c1,191 nM,–
O=C(CSc1nccn1Cc1ccco1)Nc1cc(C(F)(F)F)ccc1Cl,822 nM,–
Cc1ccc(F)cc1S(=O)(=O)N1CCCCC(c2ccc(C(F)(F)F)cc2)=N1,937 nM,–
CCNc1cc(C(=O)N[C@@H](Cc2ccoc2)[C@H](O)CNC(C)CCCC(C)C)cc(N2CCCCS2(=O)=O)c1 (stereo not given in full),619 nM,–
Clc1ccc(OCc2ccccc2)c(-c2nc(-c3nc4ccc(Cl)cc4[nH]3)cs2)c1,670 nM,–
COc1ccc(NC(=O)NC2CCN(CCCCCNC(=O)/C=C/c3ccc(Cl)c(Cl)c3)CC2)cc1,1010 nM,–
CCC(C)OC(=O)C1=C(C)NC2=C(C(=O)CC(c3ccc(OC)c(OC)c3)C2)C1c1ccc(C)o1 (stereo not given),899 nM,–
Cc1csc(NC(=O)c2cn(-c3ccccc3)nc2-c2cccs2)n1,911 nM,–

SMILES,"XC50 (Plasmodium falciparum, 3D7)",XC50
CN1CCC(C(=O)Nc2ccc(-c3ccc(-c4nc5ccccc5[nH]4)cc3)cc2)CC1,976 nM,–
CCCc1ccc(S(=O)(=O)Nc2ccc3c(c2)CCC3)cc1,879 nM,–
Cc1ccc2[nH]c3c(NCCN(C)C)ncnc3c2c1,838 nM,–
CS(=O)(=O)CCN(CCS(C)(=O)=O)Cc1ccc(-c2ccc3ncnc(Nc4ccc(OCc5cccc(F)c5)c(Cl)c4)c3c2)o1,1020 nM,–
Cc1c(C(=O)NC2CCC(CN3CCC(c4c[nH]c5ccccc45)CC3)CC2)cnn1-c1c(Cl)cc(Cl)cc1Cl (stereo not given),711 nM,–
COc1ccc(NC(=O)NC2CCN(CCCOc3cc(C)nc4ccccc34)CC2)cc1OC,1280 nM,–
O=C(NC1CCC(CN2CCC(c3c[nH]c4ccccc34)CC2)CC1)c1cc2ccccc2s1 (stereo not given),729 nM,725 nM
O=C(/C=C/c1ccc(Cl)c(Cl)c1)NCCCCCN1CCC(NC(=O)Nc2ccc(C(F)(F)F)cc2)C1 (stereo not given),513 nM,–
C[C@H](Cc1ccc(C[C@@H](C)NC[C@H](O)c2cccc(Cl)c2)cc1)NC[C@H](O)COc1ccccc1,1170 nM,–
CCCNCc1ccc(-c2ccc(CN(CCOC)C(=O)/C=C/c3ccccc3C)cc2)nc1,903 nM,–
O=C(Nc1ccsc1)Nc1cccc(-c2cccc(-c3nc4cc(C(F)(F)F)ccc4[nH]3)c2)c1,150 nM,–
CN1CCN(c2ccc(Nc3nccc(-c4c(-c5cccc(NC(=O)c6c(F)cccc6F)c5)nn5ccccc45)n3)cc2)CC1,112 nM,–
O=C(Nc1ccc(-c2cccc(-c3nc4cc(F)ccc4[nH]3)c2)cc1)Nc1ccsc1,693 nM,–
Cc1ccc2[nH]c(C)cc(=NN=Cc3cccc(Cl)c3)c2c1,739 nM,–
NC1CCN(CCNCc2cccc(-c3ccc(-c4nc5cc(F)ccc5[nH]4)cc3)c2)C1 (stereo not given),734 nM,–
COc1ccc2c(=NN=Cc3c(OC)ccc4ccccc34)cc(C)[nH]c2c1,777 nM,–
COc1ccc(C(=O)C2CC2CN2CC=C(c3c(C)[nH]c4ccccc34)CC2)cc1 (stereo not given),304 nM,–
C#CCN(Cc1cc2c(=O)[nH]c(N)nc2cc1C)c1ccc(C(=O)N[C@@H](CCC(=O)O)C(=O)O)cc1,625 nM,–
Cc1c(C2CCN(CCCCNC(=O)c3ccc(-c4ccc(C#N)cc4)cc3)CC2)c2ccccc2n1CCO,995 nM,–
O=C1c2ccccc2CN1CCCN1CCC(Oc2ccc(F)cc2)CC1,1210 nM,–
O=C(Nc1ccc(-c2nc3ccccc3[nH]2)cc1)c1cncc(Br)c1,814 nM,–

SMILES,"XC50 (Plasmodium falciparum, 3D7)",XC50
O=C(/C=C/c1ccc(Cl)c(Cl)c1)NCCCCCN1CCC(NC(=O)Nc2cccc(Cl)c2)CC1,754 nM,–
CO/C(=C\C=C\c1cc2cc(Cl)ccc2[nH]1)C(=O)NCCCN1CCN(c2cc(Cl)ccc2OC)CC1,877 nM,–
Cc1cc(F)ccc1[C@H]1C[C@H](N2CCOCC2)CCN1C(=O)N(C)[C@@H](C)c1cc(C(F)(F)F)cc(C(F)(F)F)c1,764 nM,–
COc1cc(C(=O)N2CCOC(CCN3CCC(Cc4ccc(F)cc4)CC3)(c3ccc(Cl)c(Cl)c3)C2)cc(OC)c1OC (stereo not given),902 nM,–
Cc1cc(N[C@@H](Cc2ccccc2)C(=O)NC2CCCC2)nc(NCCOc2ccccc2)n1,1110 nM,–
Oc1c(CN2CCCC(C(F)(F)F)C2)cc(Cl)c2ccccc12 (stereo not given),1570 nM,–
Cc1cccc2nc(-c3cccc(-c4cccc(CNCCc5ccncc5)c4)c3)[nH]c12,139 nM,–
CC(C)C[C@H](NC(=O)c1cc2ccccc2s1)C(=O)N[C@H]1CCN(Cc2ccc(OCCN3CCNCC3)c3ccccc23)C1,1420 nM,–
CN1CCC(NCc2cccc(-c3cccc(-c4nc5cc(C(F)(F)F)ccc5[nH]4)c3)c2)CC1,142 nM,–
O=C(CCNc1ccnc(NCC2CCCCC2)n1)Nc1ccccc1,1100 nM,–
COc1ccc(CCn2c(=N)c(C(=O)NCc3cccnc3)cc3c(=O)n4ccccc4nc32)cc1,883 nM,–
Cc1nc2nc(N)nc(N)c2c(C)c1Cc1cccc(C(F)(F)F)c1,1290 nM,–
Cc1cnc(CNCc2ccc(S(=O)(=O)Nc3ccc(Oc4cccc(Cl)c4)cc3)cc2)cn1,766 nM,–
Oc1ccc(CCNCCCCCCNCCc2ccc(Cl)c3ccccc23)cc1O,716 nM,–
CCCC(C(CC1CCC(C)CC1)C(=O)NC(CCCNc1ncccn1)C(=O)Nc1nccs1)N(O)C=O (stereo not given),187 nM,–
Cc1ccc(C)c(C2CCN(CCCCNC(=O)c3ccc(NC(=O)c4ccc(Cl)cc4)cc3)CC2)c1,847 nM,–
Cc1nc(NC(=N)N)nc2ccc(C(C)(C)C)cc12,747 nM,–
COc1nc(NCC(C)C)nc(Oc2ccc(=O)n(Cc3ccccc3)n2)n1,631 nM,–
CCn1cnc2c(Nc3cccc([N+](=O)[O-])c3)nc(N3CCC(N4CCCCC4)CC3)nc21,954 nM,–
Cc1cnc(C(=O)Nc2ccc3c(c2)CCCN(Cc2c[nH]c4cnccc24)C3)cn1,1230 nM,–
Cc1cc(=O)c(-c2ccc(Oc3cccc(C(F)(F)F)c3)cc2)c(C)[nH]1,–,629 nM and 209 nM
